One data set deals with Albumin (Homo sapiens, UniProt P02768). Kind of data set: Binding affinity to human serum albumin. The class given is ADME. The conditions noted are these: isolated protein.
Data set [1] can be described thus: Antitumor activity against rat M1 cells implanted in rat assessed as increase in tumor volume coefficient followed by light illumination at 25 mg/kg, ip after 14 days relative to control. The conditions noted are these: route intraperitoneal. The format is functional.
A short description of data set [2]: Antitumor activity against rat M1 cells implanted in rat assessed as increase in tumor volume coefficient followed by light illumination at 25 mg/kg, ip after 21 days relative to control. The class given is functional. To be noted: route intraperitoneal.
Data set [3] in a line: Induction of necrosis in rat fibroblasts at 1 uM after 20 min post illumination to red light. The conditions noted are these: fibroblast. The format is cell-based.

Sequence of Albumin (P02768 whole entry): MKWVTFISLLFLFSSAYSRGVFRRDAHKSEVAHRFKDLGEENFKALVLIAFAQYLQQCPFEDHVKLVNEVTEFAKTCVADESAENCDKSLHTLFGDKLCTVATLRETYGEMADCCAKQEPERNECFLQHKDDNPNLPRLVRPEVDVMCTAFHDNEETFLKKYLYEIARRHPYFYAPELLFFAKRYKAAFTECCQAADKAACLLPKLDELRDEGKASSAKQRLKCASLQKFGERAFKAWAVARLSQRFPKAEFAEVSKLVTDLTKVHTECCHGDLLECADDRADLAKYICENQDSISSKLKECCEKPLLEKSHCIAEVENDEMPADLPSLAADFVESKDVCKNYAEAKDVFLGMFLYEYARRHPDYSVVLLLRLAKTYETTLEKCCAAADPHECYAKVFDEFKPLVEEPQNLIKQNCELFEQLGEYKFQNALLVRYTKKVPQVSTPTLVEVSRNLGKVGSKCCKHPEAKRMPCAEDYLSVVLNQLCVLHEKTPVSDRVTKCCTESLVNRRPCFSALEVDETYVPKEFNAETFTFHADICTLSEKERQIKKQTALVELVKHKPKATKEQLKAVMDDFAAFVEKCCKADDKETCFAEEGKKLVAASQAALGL

As to `C=Cc1c(C)c2cc3nc(c(CC(=O)OC)c4[nH]c(cc5nc(cc1[nH]2)C(C)=C5CC)c(C)c4C(=O)NCCN)[C@@H](CCC(=O)OC)C3C` (some centres undefined), at Albumin, the Kb is given as 2 ×10⁵ /M. In addition, the “fold change (FC)” value is 6.6 in data set [1] and 14.5 in data set [2]. For the same compound, in data set [3], the Activity entry is listed as “Toxic”.

The values are drawn from ChEMBL document CHEMBL1143337, “Novel boronated chlorin e6-based photosensitizers: synthesis, binding to albumin and antitumour efficacy” (Bioorg Med Chem, 2009).
